Read-outs that look alike come from different tables or passages of the source.
Legend:
SARS-CoV-2 3CLpro [1] = target: T1, SARS-CoV-2 3CLpro (Severe acute respiratory syndrome coronavirus 2, UniProt P0DTD1); assay: biochemical; format: biochemical; settings: for inhibition at 5 µM: 4 h
SARS-CoV-2 3CLpro [2] = target: T1, SARS-CoV-2 3CLpro; assay: biochemical; format: biochemical
[3] = sheet LOPAC_screen_w_protease, primary screen at 5 µM, mean of two replicates, read-out: mean (LOPAC screen with protease)
[4] = sheet LOPAC_screen_w_protease, primary screen at 5 µM, replicate 1, read-out: Replicate_1 (LOPAC screen with protease)
[5] = sheet LOPAC_screen_w_protease, primary screen at 5 µM, replicate 2, read-out: Replicate_2 (LOPAC screen with protease)
[6] = with 0.01% Triton X-100; mean ± SD of triplicate; 4 h, 30 °C; read-out: A) EC50 with Triton X-100
[7] = without Triton X-100; mean ± SD of triplicate; 4 h, 30 °C; read-out: B) EC50 without Triton X-100
[8] = sheet LOPAC_screen_w_protease, primary screen at 5 µM, mean of two replicates
[9] = sheet LOPAC_screen_w_protease, primary screen at 5 µM, replicate 1
[10] = sheet LOPAC_screen_w_protease, primary screen at 5 µM, replicate 2

For O=C(/C=C/c1ccc(O)c(O)c1)OCCc1ccccc1 [Caffeic acid phenethyl ester, reference compound], the inhibition at 5 µM (SARS-CoV-2 3CLpro [1]; [3]) was 29.6%, the inhibition at 5 µM (SARS-CoV-2 3CLpro [1]; [4]) was 30.7% and the inhibition at 5 µM (SARS-CoV-2 3CLpro [1]; [5]) was 28.6%. It also gave an EC50 (SARS-CoV-2 3CLpro [2]; [6]) of over 20000 nM and an EC50 (SARS-CoV-2 3CLpro [2]; [7]) of over 20000 nM.
In the case of Cc1c(OCC(F)(F)F)ccnc1C[S+]([O-])c1nc2ccccc2[nH]1 (stereo not drawn) [Lansoprazole, reference compound], the “mean (LOPAC screen with protease)” value (SARS-CoV-2 3CLpro [1]; [8]) is reported as 41.5106, the “Replicate_1 (LOPAC screen with protease)” value (SARS-CoV-2 3CLpro [1]; [9]) is reported as 48.0924 and the “Replicate_2 (LOPAC screen with protease)” value (SARS-CoV-2 3CLpro [1]; [10]) is reported as 34.9288. The “Ratio (A/B)” value (SARS-CoV-2 3CLpro [2]) was 3.9, the EC50 (SARS-CoV-2 3CLpro [2]; A) EC50 with Triton X-100) was 5720 ± 865 nM and the EC50 (SARS-CoV-2 3CLpro [2]; B) EC50 without Triton X-100) was 1460 ± 398 nM.
In the case of Oc1ccccc1O [Pyrocatechol, reference compound], the “mean (LOPAC screen with protease)” value (SARS-CoV-2 3CLpro [1]; [8]) is reported as 52.6956, the “Replicate_1 (LOPAC screen with protease)” value (SARS-CoV-2 3CLpro [1]; [9]) is reported as 53.9412 and the “Replicate_2 (LOPAC screen with protease)” value (SARS-CoV-2 3CLpro [1]; [10]) is reported as 51.45. The “Ratio (A/B)” value (SARS-CoV-2 3CLpro [2]) was 1.0, the EC50 (SARS-CoV-2 3CLpro [2]; [6]) was 4040 ± 1420 nM and the EC50 (SARS-CoV-2 3CLpro [2]; [7]) was 4090 ± 1220 nM.
With CC1(NCC(O)COc2cccc3[nH]ccc23)CCC(C(C)(C)NC(=O)CBr)CC1 (racemic) [(±)-Pindobind, reference compound] the “mean (LOPAC screen with protease)” value (SARS-CoV-2 3CLpro [1]; [8]) was 33.6627, the “Replicate_1 (LOPAC screen with protease)” value (SARS-CoV-2 3CLpro [1]; [9]) was 33.8938 and the “Replicate_2 (LOPAC screen with protease)” value (SARS-CoV-2 3CLpro [1]; [10]) was 33.4316. For the same molecule, the EC50 (SARS-CoV-2 3CLpro [2]; [6]) was 4690 ± 3320 nM and the EC50 (SARS-CoV-2 3CLpro [2]; [7]) was over 20000 nM.
For CN(N=O)c1ccc(O)c(O)c1 [Me-3,4-dephostatin, reference compound], the “mean (LOPAC screen with protease)” value (SARS-CoV-2 3CLpro [1]; [8]) was 27.3002, the “Replicate_1 (LOPAC screen with protease)” value (SARS-CoV-2 3CLpro [1]; [9]) was 29.2005 and the “Replicate_2 (LOPAC screen with protease)” value (SARS-CoV-2 3CLpro [1]; [10]) was 25.3998. The “Ratio (A/B)” value (SARS-CoV-2 3CLpro [2]) was 2.1, the EC50 (SARS-CoV-2 3CLpro [2]; [6]) was 3780 ± 867 nM and the EC50 (SARS-CoV-2 3CLpro [2]; [7]) was 1820 ± 925 nM.
In the case of N=C1Sc2ccccc2C2=NCCCN12 [PD 404,182, reference compound], the inhibition at 5 µM (SARS-CoV-2 3CLpro [1]; [3]) is reported as 101%, the inhibition at 5 µM (SARS-CoV-2 3CLpro [1]; [4]) is reported as 101% and the inhibition at 5 µM (SARS-CoV-2 3CLpro [1]; [5]) is reported as 100%. For the same molecule, the “Ratio (A/B)” value (SARS-CoV-2 3CLpro [2]) was 1.4, the EC50 (SARS-CoV-2 3CLpro [2]; with 0.01% Triton X-100, read-out: EC50) was 81 nM and the EC50 (SARS-CoV-2 3CLpro [2]; [7]) was 60 ± 12 nM.
For Oc1cc(O)cc(/C=C/c2ccc(O)c(O)c2)c1 [Piceatannol, reference compound], the inhibition at 5 µM (SARS-CoV-2 3CLpro [1]; [3]) was 92.3%, the inhibition at 5 µM (SARS-CoV-2 3CLpro [1]; [4]) was 93.6% and the inhibition at 5 µM (SARS-CoV-2 3CLpro [1]; [5]) was 91.1%. For the same molecule, the “Ratio (A/B)” value (SARS-CoV-2 3CLpro [2]) was 1.3, the EC50 (SARS-CoV-2 3CLpro [2]; [6]) was 569 ± 75 nM and the EC50 (SARS-CoV-2 3CLpro [2]; [7]) was 455 ± 113 nM.
In the case of O=C1O/C(=C/Br)CCC1c1cccc2ccccc12 (stereo not drawn) [Bromoenol lactone, reference compound], the inhibition at 5 µM (SARS-CoV-2 3CLpro [1]; read-out: Replicate_1 (LOPAC screen with protease)) is reported as 100%, the inhibition at 5 µM (SARS-CoV-2 3CLpro [1]; read-out: Replicate_2 (LOPAC screen with protease)) is reported as 99.7% and the inhibition at 5 µM (SARS-CoV-2 3CLpro [1]; read-out: mean (LOPAC screen with protease)) is reported as 99.9%. The “Ratio (A/B)” value (SARS-CoV-2 3CLpro [2]) was 1.1, the EC50 (SARS-CoV-2 3CLpro [2]; [6]) was 817 ± 121 nM and the EC50 (SARS-CoV-2 3CLpro [2]; [7]) was 757 ± 73 nM.
With CCOC(=O)[C@]12CC1/C(=N\O)c1ccccc1O2 (mixture of isomers) [CPCCOEt, reference compound] the inhibition at 5 µM (SARS-CoV-2 3CLpro [1]; [3]) was 26.9%, the inhibition at 5 µM (SARS-CoV-2 3CLpro [1]; [4]) was 0.406% and the inhibition at 5 µM (SARS-CoV-2 3CLpro [1]; [5]) was 53.3%. It also gave an EC50 (SARS-CoV-2 3CLpro [2]; [6]) of over 20000 nM and an EC50 (SARS-CoV-2 3CLpro [2]; [7]) of over 20000 nM.

From publication PMC7587356, “High-Throughput Screening for Inhibitors of the SARS-CoV-2 Protease Using a FRET-Biosensor” (Molecules, 2020)
